Data reported in US7524816B2, “Peptides and supported peptides for treating skin diseases” (Genencor International, Inc., priority 2003, dated 2009).
Positions of bridges follow the written chain, without caps; N, C: chain ends. Residues, ends and D or L forms follow the SMILES beside them.

T1: Human VEGF165 (Homo sapiens, UniProt P15692)
T1 construct: purchased Biosource
T1 sequence (P15692 27-191 isoform P15692-4): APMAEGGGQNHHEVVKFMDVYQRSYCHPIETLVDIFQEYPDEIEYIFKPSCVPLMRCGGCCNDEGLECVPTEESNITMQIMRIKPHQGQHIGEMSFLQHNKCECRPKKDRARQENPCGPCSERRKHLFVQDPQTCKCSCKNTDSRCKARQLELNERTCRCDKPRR


Experiments:
[1] = target: T1, Human VEGF165; assay: BIAcore surface plasmon resonance binding analysis of VEGF binding peptides
Protocol: FIG. 3 provides results of a BIACORE binding analysis of VEGF binding peptides. Binding curves were obtained as described in the Examples. […]
In this Example, experiments conducted to assess the affinities of the peptides for VEGF are described. Affinities of the peptides for VEGF were measured using a BIAcore™-3000 surface plasmon resonance system (Biacore). A CM5 sensor chip was conditioned with 50 mM NaOH, 0.1% HCl, 0.1% SDS, and 0.08% H3PO4, and activated for covalent coupling of […] using N-ethyl-N′-(3-dimethylaminopropyl)-carbodiimide hydrochloride (EDC) and N-hydroxysuccinimide (NHS) according to the supplier's instructions (Biacore). Human VEGF165 (Biosource) was diluted to 5 μg/ml in 20 mM sodium acetate, pH 4.8 and injected at a flow rate of 2 μl/min to achieve approximately 1000 to 6000 response units (RU) of coupled protein. TNF[…] (human TNF[…], Biosource, Int., Camarillo, Calif.) was similarly coupled to the CM5 sensor chip to approximately 850 to 3500 RU in the reference lane. A solution of 1 M ethanolamine was injected as a blocking agent. In some experiments, an additional solution of EDC and NHS were injected to improve baseline stability and a solution of 1 M ethanolamine injected as a blocking agent. The reference lane is activated with EDC and NHS and blocked with ethanolamine.
Peptides were synthesized using standard FMOC chemistry, purified by reverse phase HPLC to >95% purity (SynPep), and stored at 10 mg/mL in DMSO. For kinetic measurements, twofold serial diluted peptides in HBS-EP buffer, 0.01 M HEPES pH 7.4, 0.15 M NaCl, 3 mM EDTA, 0.005% Surfactant P20 (Biacore), were injected at 25° C. at a flow rate of 20 μL/min. Two-fold serial diluted DMSO samples and buffer samples were also injected for background subtraction. Kinetic parameters were calculated using BIAevaluation 3.1 software.

[2] = system: human umbilical vein endothelial cells (HUVEC); assay: In vitro HUVEC proliferation assay (MTS) of hVEGF inhibitory peptides; format: cell-based; details: 10 ng/ml VEGF, 48 hrs
Protocol: In this Example, experiments conducted to determine the anti-proliferative activity of anti-VEG peptides are described. The antiproliferative activity of VEGF inhibitory peptides was determined using human umbilical vein endothelial cells (HUVEC) as follows. An early passage (less than six) of HUVEC was seeded in 96-well plates at 5000 cells per well and starved for 18 hrs in 200 μl EBM medium (Cambrex) without growth factors and supplemented with 0.5% FBS, at 37° C. with 5% CO2. The medium was replaced with 180 μl of growth medium containing EBM medium with 5% fetal bovine serum and 1% DMSO. Then, 20 μl of VEGF preincubated for one hour with varying peptide concentrations (the final DMSO concentration of all the wells was 1%) were added to the wells for a final VEGF concentration of 10 ng/ml. Human VEGF antibody (R & D Systems) was used as a positive control. Cells with 0.31 to 20 ng/ml concentrations of VEGF alone in the growth medium were used to construct a standard growth curve. The cells were further incubated for 48 hrs, and the cell proliferation was measured using an MTS assay (CellTiter 96 Aqueous One Solution Cell Proliferation Assay Kit; Promega). Then, 40 μl of the MTS tetrazolium solution was added to each well and after 3 and 4 hours incubation, the plates were read at 490 nm. The absorption of media alone was subtracted from all data points.

[3] = Repeat insult patch test (RIPT) on human skin; format: in vivo; details: 0.5% (w/v) in deionized water/butylene glycol; approximately 0.2 mL; 200 human volunteers
Protocol: In this Example, experiments conducted to determine the patch test result for anti-VEGF peptides are described. Samples of the aVEGF peptide CK37281 dosed at 0.5% (w/v) were formulated in a base formulation containing deionized water/butylene glycol. Approximately 0.2 mL of the formulation was applied to 200 human volunteers in a repeated insult patch test according to procedures designed by Clinical Research Laboratories, Inc. (Piscataway, N.J.).

[4] = target: T1, Human VEGF165; assay: BIAcore binding analysis of BBI-VEGF constructs; details: trypsin and chymotrypsin coupled in remaining lanes
Protocol: In this Example, experiments conducted to determine the binding affinity of constructs produced as indicated in Example 9 are described. Affinities of BBI-VEGF constructs for VEGF were measured using BLAcore-3000 surface plasmon resonance (Biacore). A CM5 sensor chip was conditioned with 50 mM NaOH and activated for covalent coupling of VEGF using N-ethyl-N′-3-dimethylaminopropyl)-carbodiimide hydrochloride (EDC) and N-hydroxysuccinimide (NHS) according to the supplier's instructions (Biacore). VEGF (human VEGF165, Biosource) was diluated to 5 μg/mL in 20 mM sodium acetate, pH 4.8, and injected at a flow rate of 2 μL/min to achieve approximately 1000 to 6000 response units (RU) of coupled protein. Trypsin and chymotrypsin were similarly coupled to the CM5 sensor chip to approximately 850 to 3500 RU in remaining lanes. A solution of 1 M ethanolamine was injected as a blocking agent.

[5] = two state reaction model with conformation change

ka2 [1, 5] [s⁻¹] | kd1 [1, 5] [s⁻¹] | kd1 ([1]; 1:1 Langmuir binding fit, 1000 RU VEGF, 850 RU TNF) [s⁻¹] | binding to VEGF [4] | binding to VEGF ([4]; listed as BBI-VEGF) | Molecule | IC50 antiproliferative activity [2] | dermal irritation or sensitization [3]
0.0015 | 0.0122 |  |  |  | CC(C)C[C@@H]1NC(=O)[C@H](CC(N)=O)NC(=O)[C@H](Cc2ccc(O)cc2)NC(=O)[C@@H](NC(=O)[C@H](C)N)CSSC[C@@H](C(=O)NCC(=O)NCC(=O)NCC(=O)O)NC(=O)[C@H]([C@@H](C)O)NC(=O)[C@H](Cc2c[nH]c3ccccc23)NC(=O)CNC(=O)[C@H](Cc2ccc(O)cc2)NC1=O [CK37281] (H-ACYNLYGWTCGGG-OH; disulfide 2-10 (inferred); N-terminus and C-terminus assumed) | in the micromolar range | no dermal irritation or sensitization
0.00634 | 0.318 |  |  |  | CC(C)C[C@@H]1NC(=O)[C@H](CC(N)=O)NC(=O)[C@@H](NC(=O)[C@H](C)N)CSSC[C@@H](C(=O)NCC(=O)NCC(=O)NCC(=O)O)NC(=O)[C@H](Cc2c[nH]c3ccccc23)NC(=O)[C@H](Cc2ccccc2)NC(=O)[C@H](Cc2c[nH]cn2)NC(=O)[C@@H]2CCCN2C(=O)[C@H](Cc2c[nH]c3ccccc23)NC1=O [CK37283, NLWPHFW] | in the micromolar range | 
 |  | 0.167 |  |  | CC[C@H](C)[C@@H]1NC(=O)[C@H](CC(=O)O)NC(=O)[C@@H](NC(=O)[C@H](CC(N)=O)NC(=O)[C@@H]2CCCN2C(=O)[C@H](CCC(=O)O)NC(=O)[C@@H](N)C(C)C)CSSC[C@@H](C(=O)N[C@@H](Cc2ccccc2)C(=O)N[C@@H](CCC(=O)O)C(=O)N[C@@H](CCCNC(=N)N)C(=O)N[C@@H](CC(C)C)C(N)=O)NC(=O)[C@H](CCC(=O)O)NC(=O)[C@H](Cc2c[nH]c3ccccc23)NC(=O)[C@H](CCC(=O)O)NC(=O)[C@H](Cc2c[nH]c3ccccc23)NC(=O)[C@H](CCSC)NC(=O)[C@H](C(C)C)NC(=O)[C@H](Cc2c[nH]cn2)NC1=O [v114, reference compound] (H-VEPNCDIHVMWEWECFERL-NH2; disulfide 5-15; N-terminus and C-terminus assumed) |  | 
 |  |  | binds specifically to VEGF | Selective binding affinity to VEGF | BBI-VEGF1: Bowman-Birk inhibitor fusion with one binding loop replaced by anti-VEGF peptide (protein, synthetic BBI-VEGF1 fusion protein) DDESSKPCCDQCACYNLYGWTCRCSDMRLNSCHSACKSCICALSYPAQCFCVDITDFCYEPCKPSEDDKEN |  | 
